In patent US6743785B2, “Agents and methods for the treatment of proliferative diseases” (Eli Lilly and Company, priority 1999, dated 2004):

Legend:
cyclin D1-cdk4 [1] = target: T1, cyclin D1-cdk4 (Homo sapiens, UniProt P11802); assay: Assay of Cyclin D1-cdk4 kinase activity with the ING peptide as substrate; type: biochemical; details: 200 uM ING peptide, 300 uM ATP, 60 minutes, room temperature
Method: Assay of Cyclin D1-cdk4 kinase activity with the ING Peptide as Substrate
The cyclin D1-cdk4 kinase activity of a compound was assayed by preparing a 100 ul reaction at the following concentrations: 35 mM Hepes pH 7.0, 10 mM MgCl2, 300 uM ATP, 200 uM ING peptide, 1.0 uCi of γ-^33P-ATP, 4.34 ug of cyclin D-cdk4 enzyme, 4% DMSO, and various concentrations of inhibitor. The reaction was incubated at room temperature (about 74° F.) for 60 minutes, and then terminated by the addition of 100 ul of 10% phosphoric acid. Next, the reaction was filtered through a Millipore Multiscreen-PH Plate—Catalog number MAPH NOB 10, and the plate was washed 2 times with 320 ul each of 0.5% phosphoric acid, followed by the addition of 100 ul of scintillation fluid and quantitation on a Packard Instruments, Top Count, scintillation counter.

cyclin D1-cdk4 [2] = target: T1, cyclin D1-cdk4; assay: Assay of Cyclin D1-cdk4 kinase activity with the Rb21 protein as substrate; type: biochemical; details: 5 ug Rb21 protein, 30 uM ATP, 60 minutes, room temperature; read-out: Kinase Activity with Rb2l
Method: Assay of Cyclin D1-cdk4 Kinase Activity with the Rb21 Protein as Substrate
The cyclin D1-cdk4 kinase activity of a compound was assayed by preparing a 100 ul reaction at the following concentrations: 20 mM Hepes pH 7.0, 10 mM MgCl2, 30 uM ATP, 5 ug of Rb21 protein (Santa Cruz Biotech, Catalog # sc-4112), 1.0 uCi of γ-^33P-ATP, 1.09 ug of cyclin D-cdk4 enzyme, 4% DMSO, and various concentrations of inhibitor. The reaction was incubated at room temperature (about 74° F.) for 60 minutes, and then terminated by the addition of 100 ul of 25% trichloroacetic acid. Next, the reaction was filtered through a Millipore Multiscreen-FC Plate—Catalog number MAFC NOB 10, and the plate was washed 2 times with 320 ul each of 10% trichloroacetic acid, followed by the addition of 100 ul of scintillation fluid and quantitation on a Packard Instruments, Top Count, scintillation counter.

protein kinase A = details: cited from earlier work
protein kinase C = details: cited from earlier work
[3] = system: HCT-116 and NCI H460 cell lines; assay: Cell cycle analysis using flow cytometry; type: cell-based; details: compound at 1x IC50 and 3x IC50, 24 hours, DNA histogram analysis
Method: Cell Cycle Analysis Using Flow Cytometry
The HCT-116 and NCI H460 cell lines were seeded in 75 cm^2 flasks at 5×10^5 cells/25 ml RPMI 1640 medium containing 10% dialyzed fetal bovine serum. They were incubated for 24 hours. […] The cells were subsequently harvested and the protocol (Robinson, J. P. and Darzynkiewicz, Z. Current Protocols in Cytometry. 1997) for staining was followed. DNA histogram analysis was performed using ModFit LT(Verity House).

[4] = system: HCT-116 or NCI H460 cells; assay: Cell growth inhibition assay (MTT); type: cell-based; details: 72 h drug exposure
Method: Cell Growth Inhibition Assay The MTT assay was used to measure growth inhibitory activity (Schultz, R. M., et. al. Oncology Res. 5, 223-228, 1993). […] Basically, 1000 HCT-116 or NCI H460 cells were added per well to 96-well flat-bottom plates in 100-ul RPMI 1640 medium containing 10% dialyzed fetal bovine serum. The plates were incubated for 24 h prior to addition of test compounds. A stock solution (10 mM) was prepared in DMSO and serially diluted in medium. Compound dilutions were added to triplicate wells, and the plates were incubated for 72 hours.

[5] = system: Ser-780 pRb phosphorylation in HCT116 cells; assay: Inhibition of Rb phosphorylation assay; type: cell-based, Human; details: 1x, 2x and 3x IC50, 24 hours, immunoblot
Method: Inhibition of Rb Phosphorylation Assay
Human HCT116 colon carcinoma cell line was purchased from American Tissue Culture Collection (Rockville, Md.) and maintained as monolayer in RPMI-1640 with L-Glutamine and 25 mM HEPES supplemented with 10% fetal bovine serum in a 37° C. incubator with a 10% CO2 atmosphere. The detection of mycoplasm in cultured cells was performed using Mycoplasma Rapid Detection System (TaKaRa Shuzo Co. Ltd., Shiga, Japan) every 2-3 months and the cells were found consistently negative throughout these experiments. The Rb phosphorylation assay was done be plating 4×10^5 cells/well in 6-well plates. […] At the end of the incubation period the mediumj was removed and the cells were washed twice with cold PBS containing 1 mM sodium orthovanadate (Na3VO4). […] Protein concentration was determined by the Bio-Rad DC protein assay (Bio-Rad, Hercules, Calif.). […] Proteins were detected by capturing image of the membrane using Quantity One Software on a Fluor-S multi-Imager (Bio-Rad, Hercules, Calif.) in a linear range. Specific bands were quantified using Quantity One Software. […] Results are expressed as a percentage inhibition of Ser-780 pRb phosphorylation in drug treated cells versus control DMSO treated cells.

T1 sequence (P11802 whole entry): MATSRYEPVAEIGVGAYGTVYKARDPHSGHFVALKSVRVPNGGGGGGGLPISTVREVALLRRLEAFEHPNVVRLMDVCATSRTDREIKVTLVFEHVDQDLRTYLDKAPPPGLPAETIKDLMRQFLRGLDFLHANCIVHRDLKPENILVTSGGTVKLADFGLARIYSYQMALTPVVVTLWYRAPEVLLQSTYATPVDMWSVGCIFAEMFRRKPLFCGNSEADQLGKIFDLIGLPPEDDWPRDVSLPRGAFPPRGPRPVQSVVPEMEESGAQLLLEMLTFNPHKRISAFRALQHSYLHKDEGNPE
T1 sequence (P24385 whole entry partner): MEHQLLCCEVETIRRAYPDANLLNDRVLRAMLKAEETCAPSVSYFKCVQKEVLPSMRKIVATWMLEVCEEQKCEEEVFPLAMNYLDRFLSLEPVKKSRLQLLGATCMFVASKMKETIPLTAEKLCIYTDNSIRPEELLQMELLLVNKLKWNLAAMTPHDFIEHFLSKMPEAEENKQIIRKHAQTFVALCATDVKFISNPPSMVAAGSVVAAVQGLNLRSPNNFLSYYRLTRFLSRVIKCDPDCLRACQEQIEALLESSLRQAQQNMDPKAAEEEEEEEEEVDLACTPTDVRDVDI

Structure (SMILES) | IC50 (cyclin D1-cdk4 [1]) [µM] | other results
O=C1NC(=O)C(c2cn3c4c(cccc24)NCCC3)=C1c1cn2c3c(cccc13)CCC2 [drawing 50] | – | IC50 (cyclin D1-cdk4 [2]): 0.196 µM
CN1CC[C@H](c2c(O)cc(O)c3c(=O)cc(-c4ccccc4Cl)oc23)[C@H](O)C1 [Flavopiridol] | – | concentration at which protein kinase A is inhibited (protein kinase A): ≥ 10 μM/L; concentration at which protein kinase C is inhibited (protein kinase C): ≥ 10 μM/L
Cl.O=C1NC(=O)c2c1c1c3cccc4c3n(c1c1c2c2cccc3c2n1CCNC3)CCC4 [Example 5] | – | cell cycle arrest [3]: arrest cells in the G1 phase of the cell cycle; cell growth inhibition [4]: inhibit cell growth; inhibition of Ser-780 pRb phosphorylation [5]: inhibit Rb (retinoblastoma protein) phosphorylation
O=C1NC(=O)c2c1c1c3cccc4c3n(c1c1c2c2cccc3c2n1CCCNC3)CCC4 [drawing 48] | – | IC50 (cyclin D1-cdk4 [2]): 0.336 µM
O=C1NC(=O)C(c2cn3c4c(cccc24)NCCC3)=C1c1cn2c3c(cccc13)CCC2 [drawing 43] | 0.143 | –
CC1(C)CCc2cccc3c(C4=C(c5cn6c7c(cccc57)CNCC6)C(=O)NC4=O)cn1c23 | 0.349 | –
O=C1NC(=O)c2c1c1c3cccc4c3n(c1c1c2c2cccc3c2n1CCNC3)CCC4 [drawing 49] | – | IC50 (cyclin D1-cdk4 [2]): 0.0058 µM
CC1(C)CCn2cc(C3=C(c4cn5c6c(cccc46)CNCC5)C(=O)NC3=O)c3cc(F)cc1c32 | 0.186 | –
CC1(C)CCn2cc(C3=C(c4cn5c6c(cccc46)CNCC5)C(=O)NC3=O)c3cccc1c32 | 0.537 | –

Continued, in another order:

IC50 (cyclin D1-cdk4 [1]) [µM] | Structure (SMILES) | other results
0.605 | O=C1NC(=O)c2c1c1c3cccc4c3n(c1c1c2c2cccc3c2n1CCCNC3)CCC4 [drawing 39] | –
0.413 | CC1(C)CCn2c3c1cc(F)cc3c1c3c(c4c5cccc6c5n(c4c12)CCNC6)C(=O)NC3=O | –
0.621 | CC1(C)Cc2cccc3c(C4=C(c5cn6c7c(cccc57)CNCC6)C(=O)NC4=O)cn(c23)C1 | –
0.0354 | O=C1NC(=O)c2c1c1c3cccc4c3n(c1c1c2c2cccc3c2n1CCNC3)CCC4 [drawing 40] | –
0.051 | CC1(C)Cc2cccc3c4c5c(c6c7cccc8c7n(c6c4n(c23)C1)CCNC8)C(=O)NC5=O | –
